Patent US6608043B1, “Remedies for joint diseases” (Takata Seiyaku Co., Ltd., priority 1999, dated 2003)

Assays:
[1] = tested on: synovial cells (OASC) from osteoarthritis (OA) patients; assay: Synovial cell proliferation inhibition (MTT method), OASC; assay type: cell-based, human; settings: MTT on days 4, 8 and 12, HA/Zn and Na-HA 10-300 μg/ml, Zn at 1/10 of these, vs non-drug addition group
Description: (§1) The effects of the complex of hyaluronic acid and zinc (HA/Zn) of the present invention, and the effects of sodium hyaluronate (Na-HA) and zinc (Zn) as comparison controls were tested on synovial cells (RASC) from rheumatoid arthritis (RA) patients, synovial cells (OASC) from osteoarthritis (OA) patients, and synovial cells (TASC) from traumatic arthritis (TA) patients.
(§2) The test substances used consisted of HA/Zn (Lot No. A65242, 1% solution, Gedeon-Richter, Ltd.), sodium hyaluronate (Na-HA, Lot No. KK4001, Q.P. Corp.), and zinc chloride (Zn, Lot No. ESH1413, Wako Pure Chemical Ind., Ltd.). Quantitative values of the contents of hyaluronic acid and zinc contained in the above-mentioned HA/Zn solution (specific gravity; d^2020=1.0134) were determined in advance. Since the amount of hyaluronic acid was 99% (105.0% when calculated as sodium hyaluronate) and the amount of zinc was 1.07 mg/ml when the above-mentioned 1% is assigned a value of 100, the weight ratio of hyaluronic acid to zinc in said HA/Zn was considered to be 10:1 (Na-HA:Zn). The test substances were tested at concentrations of 10 μg/ml, 30 μg/ml, 100 μg/ml, 150 μg/ml, 200 μg/ml, 250 μg/ml and 300 μg/ml for HA/Zn, the same concentrations as HA/Zn for Na-HA, and at 1/10 the concentrations of HA/Zn for Zn.
(§3) Synovial membrane tissue was sampled from the knee joint of rheumatoid arthritis (RA) patients (5 cases, 65.6±10.6 years old) and osteoarthritis (OA) patients (6 cases, 73.4±8.9 years old) during artificial joint replacement surgery, and from the knee joint of traumatic arthritis (TA) patients (6 cases, 25.6±6.7 years old) during arthroscopic surgery. […]
(§4) The synovial cells (SC) were inoculated into a microplate (96 wells, Iwaki) at a concentration of 3.55×10^3 cells/0.1 ml/well (1×10^4 cells/cm^2), and pre-cultured for 2 days at 37° C. in a vapor phase consisting of 5% CO2 and 95% air. […] The results were expressed with the optical absorbance that indicated a positive correlation with the number of cells. […]

[2] = tested on: synovial cells (TASC) from traumatic arthritis (TA) patients; assay: Synovial cell proliferation inhibition (MTT method), TASC; assay type: cell-based, human; settings: MTT on days 4, 8 and 12, HA/Zn and Na-HA 10-300 μg/ml, Zn at 1/10 of these, vs non-drug addition group
Description: as §1, §2, §3, §4

[3] = tested on: synovial cells (RASC) from rheumatoid arthritis (RA) patients; assay: Synovial cell proliferation inhibition (MTT method), RASC; assay type: cell-based, human; settings: MTT on days 4, 8 and 12, HA/Zn and Na-HA 10-300 μg/ml, Zn at 1/10 of these, vs non-drug addition group
Description: as §1, §2, §3, §4

[4] = tested on: matrix metalloproteinase MMP-9; assay: Suppression of MMP-9 in synovial cell culture supernatant (EIA); assay type: cell-based, human; settings: for production of MMP-9 relative to control (non-drug addition = 100%): culture supernatant day 8, HA/Zn and Na-HA 100 μg/ml, Zn 10 μg/ml, divided by MTT absorbance
Description: Synovial cells were inoculated into culture dishes (diameter: 35 mm, Iwaki) to a concentration of 10×10^4 cells/2 ml/dish (1×10^4 cells/cm^2), and pre-cultured for 2 days at 37° C. in a vapor phase consisting of 5% CO2 and 95% air. Later, the media were replaced with media containing each drug, and the culture supernatants were sampled on day 8 of culturing under the same conditions followed by storage at −80° C. until measurement. The added concentrations of HA/Zn and Na-HA were 100 μg/ml (final concentration), while the concentration of Zn was 10 μg/ml (final concentration). The amount of matrix metalloproteinase MMP-9 in the supernatant was measured using EIA (Enzyme Immunoassay). In order to examine the results calculated as concentration in the supernatant per cell, the results were converted to values divided by the optical absorbance value of synovial cells by MTT at that time. In addition, this value was further expressed as a relative value to the control of the individual value of each drug addition group while assigning the control (non-drug addition group) a value of 100%.

[5] = Systemic toxicity after subcutaneous administration, rats; assay type: in vivo; settings: physically allowed maximum dose 200 mg/kg
Description: (§5) Administration methods normally performed for pharmaceuticals can be used for the hyaluronic acid/zinc complex of the present invention. Namely, the above-mentioned complex can be administered orally or parenterally, and administration by injection is particularly preferable. The effective dose of the hyaluronic acid/zinc complex of the present invention is 0.01 mg to 1 mg, and preferably 0.03 mg to 0.5 mg per joint per administration per person. […] The agent for treatment of arthritic disease and matrix metalloproteinase MMP-9 suppresser of the present invention can contain 0.001% to 1%, and preferably 0.01% to 0.5%, of the hyaluronic acid/zinc complex of the present invention with a routinely used pharmaceutical carrier. Examples of routinely used pharmaceutical carriers include bases typically used in therapeutic applications such as chitosan, starch, pectin, HPMC and sodium alginate, binders such as tragacanth gum, gum arabic, cornstarch and gelatin, vehicles such as crystalline cellulose and mannitol, disintegrating agents such as cornstarch, α-starch and alginic acid, lubricants such as magnesium stearate, sweeteners such as sucrose, lactose and saccharin, flavorings such as peppermint, mint and cherry, and antiseptics.

[6] = Systemic toxicity after subcutaneous administration, mice; assay type: in vivo; settings: physically allowed maximum dose 200 mg/kg
Description: as §5

Row | Compound | proliferation of synovial cells (inhibition) [1] | proliferation of synovial cells (inhibition) [2] | proliferation of synovial cells (inhibition) [3] | production of MMP-9 relative to control (non-drug addition = 100%) [4] [%] | concentration at which MMP-9 is suppressed ([4]; synovial cells originating in rheumatoid arthritis, in vitro) [µg/mL] | symptoms of systemic toxicity [5] | symptoms of systemic toxicity [6]
1 | [Cl-].[Cl-].[Zn+2] [Zn, zinc chloride] | significant inhibition | significant inhibition | significant inhibition | 50 | – | – | –
2 | complex of hyaluronic acid and zinc [HA/Zn] | significantly inhibited dependent on the amount added | significantly inhibited dependent on the amount added | significantly inhibited dependent on the amount added | 0 | ≤ 100 | not observed to cause symptoms of systemic toxicity | not observed to cause symptoms of systemic toxicity
3 | sodium hyaluronate [Na-HA] | not significantly inhibited | not significantly inhibited | not significantly inhibited | 100 | – | – | –
